The record followed here is patent publication US20250011316A1, “PEROXIREDOXIN 3 INHIBITORS AND METHODS OF USE FOR TREATING CANCER” (Wake Forest University Health Sciences, priority 2022, published 2025).

One data set concerns the target T1, PRX3 (Homo sapiens, UniProt P30048).
T1 construct: endogenous in cells; host or cells: H-MESO malignant mesothelioma cells
T1 sequence (P30048 62-256): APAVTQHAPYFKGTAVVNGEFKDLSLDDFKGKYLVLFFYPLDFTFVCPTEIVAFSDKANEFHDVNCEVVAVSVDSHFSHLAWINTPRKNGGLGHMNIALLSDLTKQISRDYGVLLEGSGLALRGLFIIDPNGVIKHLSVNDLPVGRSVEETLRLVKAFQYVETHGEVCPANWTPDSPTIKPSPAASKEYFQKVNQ
As to the kind of experiment: Crosslinking study: PRX3 western blot of H-MESO cell lysates. Type of data set: cell-based. The following applies: H-MESO cells treated 24 hours; TS at 2.5 or 5 μM; reducing SDS-PAGE, PRX3 western blot (FIG. 3). As for the experimental part:
Malignant Mesothelioma (MM) cells (H-MESO cell line) were plated into 6-well plates in complete tissue culture media. Cells were allowed to adhere for 24 hours before being treated with indicated concentrations of thiostrepton (TS), (1) or (5) (DMSO Stocks) for 24 hours. Cell lysates were generated using standard RIPA buffer, protein concentrations were determined using a Bradford Assay and 20 μg of total protein per sample were separated by reducing SDS-Polyacrylamide Gel Electrophoresis. Proteins were transferred to a PVDF membrane, blocked with 5% Bovine Serum Albumin (BSA) for 1 hour and incubated with PRX3 primary antibody overnight at 4° C. in IX Tris Buffered Saline with Tween (TBST). Membranes were washed 3X with IX TBST and incubated with horseradish peroxidase conjugated (HRP) secondary antibody for 1 hour at room temperature. Membranes were washed 3x in IX TBST and HRP signal was developed using Enhanced Chemiluminescence and visualized on a GE digital imager.
Background: In western blotting, separated proteins are transferred to a membrane and probed.

In a further data set the test system is HMESO mesothelioma cells. As to the kind of experiment: Cell viability study (crystal violet, 48 h). Type of data set: cell-based. The following applies: Homo sapiens, 48 h incubation, read-out: IC50 (Concentration of drug required to kill 50% of cells). As for the experimental part: Cell Lines were plated in 96-well plates (Corning, Kennebunk, ME, USA) at a density of 2500 cells per well. The following day, cells were treated with test compounds diluted in complete media followed by incubation for 48 h. Post-incubation cells were washed with PBS (Corning Cellgro, Manassas, VA, USA), fixed with 3.0% formaldehyde (Fisher BioReagents, Fair Lawn, NJ, USA) in PBS, and stained for 30 min with 0.1% crystal violet (Acros Organics, Fair Lawn, NJ, USA) in water. Crystal violet stain was removed, and plates were washed with FEO and allowed to dry. To quantify cell viability, plates were imaged using the Lionheart Plate reader (BioTek Instruments, Winooski, VT, USA) and/or analyzed by absorbance at 540 nm (crystal violet dye dissolved in 100% methanol) using the Synergy HTX plate reader (BioTek Instruments, Winooski, VT, USA). To determine the effective cytotoxic concentration (ICso) of test compounds, the data were plotted using a 4-parameter non-linear regression model using GraphPad Prism7 software (GraphPad Software, San Diego, CA, USA).
Cell viability assay data in HMESO mesothelioma cells treated with compounds (1)—HCl or (5) HCl are summarized in the below Table 2. ICso (Concentration of drug required to kill 50% f cells) is shown in […] concentration

The nature of another data set: Solubility Assay (HPLC). Format: physicochemical. The following applies: HEPES/NaCl buffer, aqueous with cosolvent or surfactant or cyclodextrin, kinetic from dmso stock; 20 mM HEPES, 100 mM NaCl, pH 7.5, 18-24 hours at ambient temperature; read-out: Solubility. Summed up:
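Compound from 20 mM DMSO stock added to 20 mM HEPES, 100 mM NaCl, pH 7.5, rotated 18-24 h at ambient temperature, then centrifuged 10 min at 20,000×g to remove solids. Supernatant diluted in DMSO and quantified by HPLC peak area against the closest of 200 μM and 20 μM standards, corrected for dilution.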

Another data set addresses T2, purified human PRX3 (Homo sapiens, UniProt P30048).
T2 construct: made in house
T2 sequence (P30048 62-256): T1 sequence (P30048 62-256)
As to the kind of experiment: Biochemical PRX3 Inhibition Assay (non-reducible crosslink by SDS PAGE + single adduct by MALDI-TOF MS). As to conditions: 100 μM PRX3 with TRX2/thioredoxin reductase/NADPH system and hydrogen peroxide, 1-2 hr at 37° C. The method in brief:
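Purified human PRX3 (100 µM) cycled with TRX2, thioredoxin reductase, NADPH regenerating system and H2O2, incubated with compound 1–2 h at 37 °C. Non-reducible crosslink quantified by densitometry of SDS-PAGE (~46 vs ~23 kDa) after DTT; single-adduct fraction from MALDI-TOF MS peak intensities, background-corrected against DMSO.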

Data set [1] relates to Enterococcus hirae (ATCC #10541). As to the kind of experiment: Antimicrobial Activity Assay (MIC / growth inhibition). The following applies: for MIC: ATCC10541, Enterococcus hirae, analogs tested at 20 μM final concentration. Format: cell-based. As for the experimental part: The overnight growth was then diluted into growth media to make a single solution of E. hirae with a final optical density at 600 nm=0.02 AU. A 20 mM stock solution of Thiostrepton in DMSO was made and used to make multiple dilutions of TS in DMSO. Each TS dilution (0.1 mL) was then added to a test tube containing 10 mL of the diluted E. hirae and grown at 37° C. overnight while shaking at 180 rpm. The next morning, each tube was visually inspected to determine if the cells grew. Final concentrations tested were 0.120, 0.090, 0.075, 0.060, 0.045, 0.030, and 0.015 μM TS. […] Three replicates were made on three separate days (n=9). […] For TS analogs, the dilute E. hirae was treated with 20 μM final concentration of each analog (three replicates each). […] DMSO was used as a positive control (complete cell growth) and 20 μM thiostrepton was used as a negative control.

Data set [2] concerns human SK—OV-3 ovarian cancer cells. As to the kind of experiment: Cellular Activity Assay (cytotoxicity, crystal violet). Format: cell-based. As to conditions: Homo sapiens; SK—OV-3 cells, treated for 48 hr, 0.1-100 μM, crystal violet absorbance at 540 nm. The method in brief:
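SK-OV-3 cells plated, allowed 24 h recovery, then treated 48 hr with compound at 0.1-100 μM. Live cells were fixed (3.0% formaldehyde), stained with 0.1% crystal violet and read at 540 nm. EC50 was fitted after normalizing to matched-DMSO controls.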

The mark [3] stands for this setting: E. hirae, overnight at 37° C., MIC determination, n=9.

≈ marks a conversion by molar mass, not a printed value. Counter-ions that a name gives are not always drawn.

As for `C=C(NC(=O)C(=C)NC(=O)c1csc(-c2ccc(N)cc2)n1)C(N)=O` [(1), N-(3-((3-amino-3-oxoprop-1-en-2-yl)amino)-3-oxoprop-1-en-2-yl)-2-(4-aminophenyl)thiazole-4-carboxamide], the “Covalent PRX3 crosslinking (PRX3-X-PRX3)” value at PRX3 is reported as “No PRX3 —X —PRX3 crosslinking was observed”.

Take `C=C(NC(=O)C(=C)NC(=O)c1csc(-c2ccc(N)cc2)n1)C(N)=O` [(1)-HC1, N-(3-((3-amino-3-oxoprop-1-en-2-yl)amino)-3-oxoprop-1-en-2-yl)-2-(4-aminophenyl)thiazole-4-carboxamide hydrochloride]: in the data set on HMESO mesothelioma cells, the IC50 is 748 µM.

Take `C=C(NC(=O)c1csc(-c2ccc(N)cc2)n1)C(=O)NC(=C)C(=O)OC` [(5), Methyl 2-(2-(2-(4-aminophenyl)thiazole-4-carboxamido)acrylamido)acrylate]: on PRX3, the “Covalent PRX3 crosslinking (PRX3-X-PRX3)” value was “Similar, yet less robust”.

By solubility is commonly meant the dissolved amount per volume that the medium holds. For orientation: MIC means the least concentration at which growth counts as inhibited. High values mean a less susceptible organism, low ones a more susceptible organism. By EC50 is commonly meant the concentration at which the effect is half-maximal. With `C=C(NC(=O)c1csc(-c2ccc(CNC(=O)OCCOC)cc2)n1)C(=O)NC(=C)C(=O)OC` [Compound 26, Methyl 2-(2-(2-(4-((((2-methoxyethoxy)carbonyl)amino)methyl)phenyl)thiazole-4-carboxamido)acrylamido)acrylate], the solubility in “Solubility Assay (HPLC)” fell in the range of 100 to 1000 µM (≈ 48.9 to 489 µg/mL). Further, on purified human PRX3, the “PRX3 Inhibition (Crosslink + Mono-adduct)” value (“PRX3 Inhibition” below) is given as “++ (50-90%)”. For the same molecule, in data set [1], the minimum inhibitory concentration (MIC) was > 20 µM. The molecule further yielded a concentration giving a half-maximal response (EC50) in data set [2] of 1 to 10 µM.

Regarding `C=C(NC(=O)c1csc(-c2cccc(COCCOC)c2)n1)C(=O)NC(=C)C(=O)OC` [Compound 27, Methyl 2-(2-(2-(3-((2-methoxyethoxy)methyl)phenyl)thiazole-4-carboxamido)acrylamido)acrylate], the solubility in the data set “Solubility Assay (HPLC)” is < 100 µM. For the same molecule, at purified human PRX3, the “PRX3 Inhibition” value is given as “+++ (>90%)”. For the same molecule, the MIC in data set [1] was > 20 µM. For the same molecule, the 50% effective concentration (EC50) in data set [2] was in the range of 1 to 10 µM.

For `C=C(NC(=O)c1csc(N2CCCC(C(=O)NCC(C)C)C2)n1)C(=O)NC(=C)C(=O)OC` (stereo not shown) [Compound 28, Methyl 2-(2-(2-(3-(isobutylcarbamoyl)piperidin-1-yl)thiazole-4-carboxamido)acrylamido)acrylate], the solubility in the data set “Solubility Assay (HPLC)” was < 100 µM. Moreover, the “PRX3 Inhibition” value at purified human PRX3 is “+++ (>90%)”. Besides, the MIC in data set [1] was > 20 µM. This molecule also showed an EC50 in data set [2] of 1 to 10 µM.

Take `C=C(NC(=O)c1csc(N2CCC(C(=O)NCCCOC(C)C)CC2)n1)C(=O)NC(=C)C(=O)OC` [Compound 29, Methyl 2-(2-(2-(4-((3-isopropoxypropyl)carbamoyl)piperidin-1-yl)thiazole-4-carboxamido)acrylamido)acrylate]: in the data set “Solubility Assay (HPLC)”, the solubility lay within 100 to 1000 µM (≈ 50.8 to 508 µg/mL). The “PRX3 Inhibition” value on purified human PRX3 is “+++ (>90%)”. In addition, the minimal inhibitory concentration (MIC) in data set [1] is > 20 µM. The concentration giving a half-maximal response (EC50) in data set [2] lay within 1 to 10 µM.

With `C=C(NC(=O)c1csc(-c2ccc(COC(=O)NCc3ccccc3)cc2)n1)C(=O)NC(=C)C(=O)OC` [Compound 30, Methyl 2-(2-(2-(4-(((benzylcarbamoyl)oxy)methyl)phenyl)thiazole-4-carboxamido)acrylamido)acrylate], in “Solubility Assay (HPLC)”, the solubility was < 100 µM. On purified human PRX3, the “PRX3 Inhibition” value is “+ (5-50%)”. In addition, in data set [1], the MIC is > 20 µM. In data set [2], the concentration for a half-maximal effect (EC50) was 25 to 100 µM.

With `C=C(NC(=O)c1csc(N2CCC[C@@H](NC(=O)OCCOC)C2)n1)C(=O)NC(=C)C(=O)OC` [Compound 31, Methyl (R)-2-(2-(2-(3-(((2-methoxyethoxy)carbonyl)amino)piperidin-1-yl)thiazole-4-carboxamido)acrylamido)acrylate], the solubility in the data set “Solubility Assay (HPLC)” is > 1000 µM. In addition, the “PRX3 Inhibition” value at purified human PRX3 was “+ (5-50%)”. The MIC in data set [1] was > 20 µM. This molecule also returned an EC50 in data set [2] of 25 to 100 µM.

For the molecule `C=C(NC(=O)c1csc(N2CCC(COC(=O)NCCCOC)CC2)n1)C(=O)NC(=C)C(=O)OC` [Compound 32, Methyl 2-(2-(2-(4-((((3-methoxypropyl)carbamoyl)oxy)methyl)piperidin-1-yl)thiazole-4-carboxamido)acrylamido)acrylate], the solubility in “Solubility Assay (HPLC)” fell in the range of 100 to 1000 µM (≈ 51 to 510 µg/mL). In addition, the “PRX3 Inhibition” value on purified human PRX3 is “++ (50-90%)”. The minimum inhibitory concentration (MIC) in data set [1] was > 20 µM. The molecule also yielded an EC50 in data set [2] of 25 to 100 µM.

Regarding `C=C(NC(=O)c1csc(N2CCC(NC(=O)OCCOC)CC2)n1)C(=O)NC(=C)C(=O)OC` [Compound 33, Methyl 2-(2-(2-(4-(((2-methoxyethoxy)carbonyl)amino)piperidin-1-yl)thiazole-4-carboxamido)acrylamido)acrylate], the solubility in “Solubility Assay (HPLC)” is > 1000 µM. In addition, on purified human PRX3, the “PRX3 Inhibition” value is “+++ (>90%)”. Besides, in data set [1], the minimum inhibitory concentration (MIC) was > 20 µM. In data set [2], this molecule showed an EC50 of 25 to 100 µM.

As to `C=C(NC(=O)c1csc(N2CCC(NC(=O)COCCOC)CC2)n1)C(=O)NC(=C)C(=O)OC` [Compound 34, Methyl 2-(2-(2-(4-(2-(2-methoxyethoxy)acetamido)piperidin-1-yl)thiazole-4-carboxamido)acrylamido)acrylate], in “Solubility Assay (HPLC)”, the solubility was > 1000 µM. The “PRX3 Inhibition” value at purified human PRX3 is reported as “+++ (>90%)”. Also, in data set [1], the MIC was > 20 µM. Also, the 50% effective concentration (EC50) in data set [2] is 1 to 10 µM.

As for `C=C(NC(=O)C(=C)NC(=O)c1csc(C2=N[C@@H]3c4csc(n4)[C@H]4NC(=O)c5csc(n5)[C@H]([C@](C)(O)[C@@H](C)O)NC(=O)[C@H]5CSC(=N5)/C(=C/C)NC(=O)[C@H]([C@@H](C)O)NC(=O)c5csc(n5)[C@]3(CC2)NC(=O)[C@H](C)NC(=O)C(=C)NC(=O)[C@H](C)NC(=O)[C@H]([C@@H](C)CC)N[C@@H]2C=Cc3c([C@H](C)O)cc(nc3[C@H]2O)C(=O)O[C@@H]4C)n1)C(N)=O` [TS, Thiostrepton, reference compound], the “Covalent PRX3 crosslinking (PRX3-X-PRX3)” value on PRX3 was “resulted in covalent PRX3 crosslinking”. In data set [1] (setting [3]), the “TS concentrations at which complete growth was observed” value is < 0.030 µM and the “TS concentrations at which no growth was observed” value was > 0.045 µM. Moreover, in the data set with HMESO mesothelioma cells, the IC50 was 1.01 µM.
